According to PMC10377775, “Identification of a Novel ERK5 (MAPK7) Inhibitor, MHJ-627, and Verification of Its Potent Anticancer Efficacy in Cervical Cancer HeLa Cells” (Current Issues in Molecular Biology, 2023):

What was measured:
[1] = molecular target: T1, ERK5 (MAPK7) (Homo sapiens, UniProt Q13164); assay: FRET-based Z'-LYTE in vitro kinase assay, […] ng ERK5 (ab126913), […] ATP; type: biochemical
[2] = molecular target: T1, ERK5 (MAPK7); assay: FRET-based Z'-LYTE in vitro kinase assay, single concentration ([…]), positive control; type: biochemical

T1 sequence (Q13164 2-816): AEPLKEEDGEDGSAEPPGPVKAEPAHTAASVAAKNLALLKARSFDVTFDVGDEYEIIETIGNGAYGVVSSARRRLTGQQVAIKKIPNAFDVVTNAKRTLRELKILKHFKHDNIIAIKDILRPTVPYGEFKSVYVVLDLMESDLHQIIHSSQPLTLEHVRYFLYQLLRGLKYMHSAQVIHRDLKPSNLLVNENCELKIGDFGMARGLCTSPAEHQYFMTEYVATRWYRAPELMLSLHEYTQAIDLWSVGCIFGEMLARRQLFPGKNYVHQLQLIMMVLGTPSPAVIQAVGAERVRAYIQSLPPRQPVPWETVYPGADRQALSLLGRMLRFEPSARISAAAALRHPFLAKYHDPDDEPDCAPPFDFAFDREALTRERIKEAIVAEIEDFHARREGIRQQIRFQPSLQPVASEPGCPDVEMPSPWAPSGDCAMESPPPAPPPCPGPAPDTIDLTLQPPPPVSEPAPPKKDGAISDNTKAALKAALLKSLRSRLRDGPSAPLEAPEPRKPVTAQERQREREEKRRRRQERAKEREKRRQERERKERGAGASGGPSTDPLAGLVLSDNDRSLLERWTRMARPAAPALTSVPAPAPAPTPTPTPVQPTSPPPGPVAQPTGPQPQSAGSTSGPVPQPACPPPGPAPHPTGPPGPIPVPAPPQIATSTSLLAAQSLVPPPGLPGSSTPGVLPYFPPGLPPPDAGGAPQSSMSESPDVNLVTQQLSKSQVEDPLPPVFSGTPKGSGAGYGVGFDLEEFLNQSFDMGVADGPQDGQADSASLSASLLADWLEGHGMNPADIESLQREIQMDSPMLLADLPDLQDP

Compound	IC50 [1]	inhibition at 5 µM [2]
CC(C)CCOc1cc(C(=O)C[n+]2cn(CCC(C)C)c3ccccc32)c(OCCC(C)C)c2ccccc12 [MHJ-627, 3-(2-(1,4-bis(isopentyloxy)naphthalen-2-yl)-2-oxoethyl)-1-isopentyl-1H-benzo[d]imidazol-3-ium bromide]	910 nM	–
CCOc1cc(N2CCC(O)CC2)ccc1Nc1ncc2c(n1)N(C)c1ccccc1C(=O)N2C [XMD8-92]	–	56%
